This is an account of results in patent US20080262040A1, “Chemical Compounds” (SMITHKLINE BEECHAM CORPORATION, priority 2005, published 2008).

The assay deals with T1, Recombinant human IKKβ (residues 1-737) (IKK2) (Homo sapiens, UniProt O14920).
T1 construct: Recombinant human IKKβ (residues 1-737) was expressed in baculovirus; GST (C); made in house
T1 sequence (O14920 1-737): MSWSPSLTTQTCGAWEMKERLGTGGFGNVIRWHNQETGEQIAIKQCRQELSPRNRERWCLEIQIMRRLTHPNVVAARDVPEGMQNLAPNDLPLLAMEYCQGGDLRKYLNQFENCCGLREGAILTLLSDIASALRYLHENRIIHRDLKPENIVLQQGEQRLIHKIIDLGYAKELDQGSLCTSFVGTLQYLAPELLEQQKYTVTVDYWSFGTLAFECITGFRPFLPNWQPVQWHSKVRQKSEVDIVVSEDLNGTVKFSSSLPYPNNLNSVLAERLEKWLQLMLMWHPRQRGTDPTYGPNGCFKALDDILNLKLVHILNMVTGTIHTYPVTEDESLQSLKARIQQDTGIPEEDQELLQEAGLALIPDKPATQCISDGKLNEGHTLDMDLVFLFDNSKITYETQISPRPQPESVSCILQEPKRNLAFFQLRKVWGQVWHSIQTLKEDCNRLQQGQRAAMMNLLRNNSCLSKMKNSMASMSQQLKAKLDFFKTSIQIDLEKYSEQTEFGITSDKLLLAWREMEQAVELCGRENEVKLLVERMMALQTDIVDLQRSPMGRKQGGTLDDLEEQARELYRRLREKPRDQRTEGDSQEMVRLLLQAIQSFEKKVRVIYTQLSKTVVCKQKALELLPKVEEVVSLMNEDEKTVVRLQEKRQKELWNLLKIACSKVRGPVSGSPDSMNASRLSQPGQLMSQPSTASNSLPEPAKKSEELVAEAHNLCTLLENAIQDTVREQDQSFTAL
The experiment in a line: IKK2 TR-FRET assay. Type of assay: biochemical. The settings on record: IKK2 5 nM, GST-IκBα 25 nM, ATP 1 μM, 30 minutes at room temperature, read-out: pIC50 against IKK2 (converted). The procedure:
Recombinant human IKKβ (residues 1-737) was expressed in baculovirus as a C-terminal GST-tagged fusion protein, and its activity was assessed using a time-resolved fluorescence resonance energy transfer (TR-FRET) assay. Briefly, IKK2 (5 nM final) diluted in assay buffer (50 mM HEPES, 10 mM MgCl2, 1 mM CHAPS pH 7.4 with 1 mM DTT and 0.01% w/v BSA) was added to wells containing various concentrations of compound or DMSO vehicle (3% final). The reaction was initiated by the addition of GST-IκBα substrate (25 nM final)/ATP (1 μM final), in a total volume of 30 μl. The reaction was incubated for 30 minutes at room temperature, then terminated by the addition of 15 μl of 50 mM EDTA. Detection reagent (15 μl) in buffer (100 mM HEPES pH 7.4, 150 mM NaCl and 0.1% w/v BSA) containing antiphosphoserine-IκBα-32/36 monoclonal antibody 12C2 (Cell Signalling Technology, Beverly Mass., USA) labelled with W-1024 europium chelate (Wallac O Y, Turku, Finland), and an APC-labelled anti-GST antibody (Prozyme, San Leandro, Calif., USA) was added and the reaction was further incubated for 60 minutes at room temperature. The degree of phosphorylation of GST-IκBα was measured using a Packard Discovery plate reader (Perkin-Elmer Life Sciences, Pangbourne, UK) as a ratio of specific 665 nm energy transfer signal to reference europium 620 nm signal.
On the technique in general: Time-resolved FRET reads energy transfer from a long-lived donor to a nearby acceptor.
Turning to `CC(C)(C)OC(=O)N1CCC(n2ncc3c(C(N)=O)cc(-c4ccccc4)cc32)CC1` [Example 1, 1,1-dimethylethyl-4-[4-(aminocarbonyl)-6-phenyl-1H-indazol-1-yl]-1-piperidinecarboxylate], the IC50 is at most 10 µM.
The value for `NC(=O)c1cc(-c2ccccc2)cc2c1cnn2C1CCNCC1` [Example 2, 6-phenyl-1-(4-piperidinyl)-1H-indazole-4-carboxamide] was at most 10 µM; that for `NC(=O)c1cc(-c2ccccc2)cc2[nH]ncc12` [Example 3, 6-phenyl-1H-indazole-4-carboxamide] was at most 10 µM; that for `NC(=O)c1cc(-c2ccccc2)cc2c1cnn2C1CCN(S(=O)(=O)c2ccc(F)cc2)CC1` [Example 4, 1-{1-[(4-fluorophenyl)sulfonyl]-4-piperidinyl}-6-phenyl-1H-indazole-4-carboxamide] was at most 10 µM.
For the compound `Cn1cnc(S(=O)(=O)N2CCC(n3ncc4c(C(N)=O)cc(-c5ccccc5)cc43)CC2)c1` [Example 5, 1-{1-[(1-methyl-1H-imidazol-4-yl)sulfonyl]-4-piperidinyl}-6-phenyl-1H-indazole-4-carboxamide], the IC50 was at most 10 µM.
For `CCC(=O)N1CCC(n2ncc3c(C(N)=O)cc(-c4ccccc4)cc32)CC1` [Example 6, 6-phenyl-1-(1-propanoyl-4-piperidinyl)-1H-indazole-4-carboxamide], the IC50 was at most 10 µM.
The value for `CCS(=O)(=O)N1CCC(n2ncc3c(C(N)=O)cc(-c4ccccc4)cc32)CC1` [Example 7, 1-[1-(ethylsulfonyl)-4-piperidinyl]-6-phenyl-1H-indazole-4-carboxamide] was at most 10 µM.
Consider `NC(=O)c1cc(-c2ccccc2)cc2c1cnn2C1CCN(C(=O)c2ccccc2)CC1` [Example 8, 6-phenyl-1-[1-(phenylcarbonyl)-4-piperidinyl]-1H-indazole-4-carboxamide], for which the IC50 is at most 10 µM.
As for `NC(=O)c1cc(-c2ccccc2)cc2c1cnn2C1CCN(S(=O)(=O)c2ccccc2)CC1` [Example 9, 6-phenyl-1-[1-(phenylsulfonyl)-4-piperidinyl]-1H-indazole-4-carboxamide], the IC50 was at most 10 µM.
Under `CC(C)(C)OC(=O)N1CCCC(n2ncc3c(C(N)=O)cc(-c4ccccc4)cc32)C1` (stereo not shown) [Example 12, 1,1-dimethylethyl-3-[4-(aminocarbonyl)-6-phenyl-1H-indazol-1-yl]-1-piperidinecarboxylate] stands at most 10 µM; under `CCS(=O)(=O)N1CCCC(n2ncc3c(C(N)=O)cc(-c4ccccc4)cc32)C1` (stereo not shown) [Example 14, 1-[1-(ethylsulfonyl)-3-piperidinyl]-6-phenyl-1H-indazole-4-carboxamide], at most 10 µM.
In the case of `Cn1cnc(S(=O)(=O)N2CCCC(n3ncc4c(C(N)=O)cc(-c5ccccc5)cc43)C2)c1` (stereo not shown) [Example 15, 1-{1-[(1-methyl-1H-imidazol-4-yl)sulfonyl]-3-piperidinyl}-6-phenyl-1H-indazole-4-carboxamide], the IC50 was above 15.8 µM.
The value for `CCC(=O)N1CCCC(n2ncc3c(C(N)=O)cc(-c4ccccc4)cc32)C1` (stereo not shown) [Example 16, 6-phenyl-1-(1-propanoyl-3-piperidinyl)-1H-indazole-4-carboxamide] was above 15.8 µM.
Turning to `NC(=O)c1cc(-c2ccccc2)cc2c1cnn2C1CCCN(C(=O)c2ccccc2)C1` (stereo not shown) [Example 17, 6-phenyl-1-[1-(phenylcarbonyl)-3-piperidinyl]-1H-indazole-4-carboxamide], the IC50 was above 15.8 µM.
Under `NC(=O)c1cc(-c2ccccc2)cc2c1cnn2C1CCCN(S(=O)(=O)c2ccccc2)C1` (stereo not shown) [Example 18, 6-phenyl-1-[1-(phenylsulfonyl)-3-piperidinyl]-1H-indazole-4-carboxamide] stands above 15.8 µM; under `NC(=O)c1cc(-c2ccccc2)cc2c1cnn2C1CCCN(S(=O)(=O)c2ccc(F)cc2)C1` (stereo not shown) [Example 19, 1-{1-[(4-fluorophenyl)sulfonyl]-3-piperidinyl}-6-phenyl-1H-indazole-4-carboxamide], above 15.8 µM.
